Measured values taken from patent publication US20200360331A1, “COMPOSITIONS COMPRISING 15-HEPE AND/OR 15-HETrE AND METHODS OF TREATING OR PREVENTING CARDIOMETABOLIC DISEASE, METABOLIC SYNDROME, AND/OR RELATED DISEASES” (Afimmune Limited, priority 2019, published 2020).
“Also recorded” adds a separate entry of the source.

Experiments:
[1] = test system: BDL-operated mice; test: BDL study: Sirius red staining of liver sections, fibrosis area; assay type: in vivo, C57BL/6J mice
Procedure: BDL Surgery: On Day 0 of the study, BDL surgery was performed under pentobarbital (Kyoritsu Seiyaku, Japan) anesthesia. The mouse's hair was first shaved, the abdominal cavity cut open, and the common bile duct was ligated twice with 7-0 surgical silk. The mouse's peritoneum and the skin were closed with sutures, and the mice were transferred to a clean cage (e.g., resting cage) until recovered from anesthesia. Sham operated mice had their common bile duct exposed but not ligated.
[…]: To visualize collagen deposition, Bouin's fixed liver sections were stained using picro-Sirius red solution (Waldeck, Germany). For quantitative analysis of fibrosis area, bright field images of Sirius red-stained sections were captured using a digital camera (DFC295, Leica, Germany) at 100-fold magnification, and the positive areas in 5 fields/section were measured using ImageJ software (National Institute of Health, USA).

[2] = test system: TGF-β; test: UUO study: quantitative RT-PCR of kidney, TGF-β; assay type: in vivo, C57BL/6 mice; settings: UUO mice kidney
Procedure: (§1) Quantitative RT-PCR: Total ribonucleic acid (RNA) was extracted from kidney samples using RNAiso (Takara Bio, Japan) according to the manufacturer's instructions. One μg of RNA was reverse-transcribed using a reaction mixture containing 4.4 micromolar (mM) of magnesium chloride (MgCl2) (F. Hoffmann-La Roche, Switzerland), 40 U RNase inhibitor (Toyobo, Japan), 0.5 mM dNTP (Promega, USA), 6.28 μM random hexamer (Promega), 5× first strand buffer (Promega), 10 mM dithiothreitol (Invitrogen, USA) and 200 U MMLV-RT (Invitrogen) in a final volume of 20 μL. The reaction was carried out for 1 hour at 37° C., followed by 5 minutes at 99° C. Real-time PCR was performed using real-time PCR DICE and TB Green™ Premix Ex Taq™ II (Takara Bio). To calculate the relative microRNA (mRNA) expression level, the expression of each gene (e.g., α-SMA, TIMP-1, TGF-β and Collagen Type 1) was normalized to that of reference gene 36B4 (gene symbol: Rplp0). Information regarding the PCR-primer sets and the plate layout are described in Tables 1 and 2.

[3] = test system: TIMP-1; test: BDL study: quantitative RT-PCR of liver, TIMP-1; assay type: in vivo, C57BL/6J mice; settings: BDL mice liver
Procedure: as §1, with “from liver” for “from kidney”, “4.4 mM” for “4.4 micromolar (mM) of”, “relative mRNA” for “relative microRNA (mRNA)”, “gene (α-SMA,” for “gene (e.g., α-SMA,”, “Tables 8” for “Tables 1”, “and 9.” for “and 2.”

[4] = test system: Alpha-SMA; test: BDL study: quantitative RT-PCR of liver, Alpha-SMA; assay type: in vivo, C57BL/6J mice; settings: BDL mice liver
Procedure: as §1, with “from liver” for “from kidney”, “4.4 mM” for “4.4 micromolar (mM) of”, “relative mRNA” for “relative microRNA (mRNA)”, “gene (α-SMA,” for “gene (e.g., α-SMA,”, “Tables 8” for “Tables 1”, “and 9.” for “and 2.”

[5] = test system: TGF-β-stimulated intracellular signaling (SMAD2/3 phosphorylation); test: TGF-β-stimulated SMAD2/3 phosphorylation in LX2 liver stellate cells; assay type: cell-based, human; settings: 0 μM to 100 μM for 24 hours, then 30 min TGF-β stimulation, listed as 15-HEPE
[6] = test system: UUO mice; test: UUO study: kidney hydroxyproline content; assay type: in vivo, C57BL/6 mice
Procedure: UUO Surgery: On day 0 of the study, UUO surgery was performed on mice under pentobarbital sodium anesthesia. The mouse's hair was first shaved and then abdomen cut open to exteriorize the mouse's left ureter. The ureter was ligated 4-0 nylon sutures at two points. The mouse's peritoneum and skin were then closed with sutures, and the mouse transferred to a clean cage until recovered from the anesthesia. Sham operated mice had their left ureter exposed but not ligated.
Measurement of Kidney Biochemistry: To quantify kidney hydroxyproline content, frozen left kidney samples were processed by an alkaline-acid hydrolysis method as follows: kidney samples were dissolved in 2 normal (N) sodium hydroxide (NaOH) at 65° C. and autoclaved at 121° C. for 20 minutes. The lysed samples (400 μL) were acid-hydrolyzed with 400 μL of 6N hydrochloride acid (HCl) at 121° C. for 20 minutes, and neutralized with 400 μL of 4N NaOH containing 10 mg/mL of activated carbon. An AC buffer (e.g., 2.2M acetic acid/0.48M citric acid, 400 μL) was added to the samples, followed by centrifugation to collect the supernatant. A standard curve of hydroxyproline was constructed with serial dilutions of trans-4-hydroxy-L-proline (Sigma-Aldrich, USA) starting at 16 μg/mL. The prepared samples and standards (e.g., each 400 μL) were mixed with 400 μL chloramine T solution (Wako Pure Chemical Industries, Japan) and incubated for 25 minutes at room temperature. The samples were then mixed with Ehrlich's solution (e.g., 400 μL) and heated at 65° C. for 20 minutes to develop the color. After samples were cooled on ice and centrifuged to remove precipitates, the optical density of each supernatant was measured at 560 nanometers (nm). The concentrations of hydroxyproline were calculated from the hydroxyproline standard curve. Protein concentrations of kidney samples were determined using a bicinchoninic (BCA) protein assay kit (Thermo Fisher Scientific, USA) and used to normalize the calculated hydroxyproline values. Kidney hydroxyproline contents were expressed as microgram (μg) per mg protein.

[7] = test system: Alpha-SMA; test: UUO study: quantitative RT-PCR of kidney, Alpha-SMA; assay type: in vivo, C57BL/6 mice; settings: UUO mice kidney
Procedure: as §1

[8] = relative mRNA normalized to 36B4, 50 mg/kg PO QD Day 0-13
[9] = relative mRNA normalized to 36B4, 500 mg/kg PO QD Day 0-13
[10] = relative mRNA normalized to 36B4, 250 mg/kg PO QD Day 0-13

## CC/C=C\CC(O)/C=C/C=C\C/C=C\C/C=C\CCCC(=O)O (stereo not shown) [DS102, 15-hydroxy-eicosa-5Z,8Z,11Z,13E,17Z-pentaenoic acid]
[1]; BDL mice liver, 500 mg/kg
  fibrosis area compared with the Vehicle group: tended to decrease; also recorded: trend approaching significance
[1]; BDL mice, liver, 50 mg/kg
  fibrosis area compared with the Vehicle group: no significant difference
[1]; BDL mice, liver, 50 mg/kg PO QD Day 0-13, Day 14
  Sirius red-positive area: 1.70 ± 0.63%
[1]; BDL mice, liver, 250 mg/kg
  fibrosis area compared with the Vehicle group: significant decrease
[1]; BDL mice, liver, 250 mg/kg PO QD Day 0-13, Day 14
  Sirius red-positive area: 1.06 ± 0.48%
[1]; BDL mice, liver, 500 mg/kg PO QD Day 0-13, Day 14
  Sirius red-positive area: 1.42 ± 0.60%
[2]; [8]
  TGF-β gene expression: 4.31 ± 0.69
[2]; [9]
  TGF-β gene expression: 5.37 ± 0.76
[3]; 500 mg/kg
  TIMP-1 mRNA expression level compared with the Vehicle group: tended to decrease; also recorded: trend approaching significance
[3]; DS102 treatment groups
  TIMP-1 mRNA expression level vs Vehicle group: no significant differences
[3]; [8]
  TIMP-1 gene expression: 43.82 ± 26.19
[3]; [10]
  TIMP-1 gene expression: 30.65 ± 16.80
[3]; [9]
  TIMP-1 gene expression: 16.09 ± 10.16
[4]; 500 mg/kg
  α-SMA mRNA expression level compared with the Vehicle group: tended to decrease; also recorded: trend approaching significance
[4]; DS102 treatment groups
  α-SMA mRNA expression level vs Vehicle group: no significant differences
[4]; [8]
  Alpha-SMA gene expression: 3.21 ± 1.67
[4]; [10]
  Alpha-SMA gene expression: 2.66 ± 1.33
[4]; [9]
  Alpha-SMA gene expression: 1.42 ± 0.75
[5]
  TGF-β-stimulated intracellular signaling (SMAD2/3 phosphorylation): inhibits TGF-β-stimulated intracellular signaling; also recorded: inhibited TGF-β induced intracellular signaling (SMAD2/3)
[6]; 50 mg/kg
  kidney hydroxyproline contents compared with the Vehicle group: significant decrease
[6]; 50 mg/kg PO QD Day 0-13, Day 14
  Kidney hydroxyproline: 8.47 ± 2.08 μg/mg total protein
[6]; 500 mg/kg
  kidney hydroxyproline contents compared with the Vehicle group: significant decreases
[6]; 500 mg/kg PO QD Day 0-13, Day 14
  Kidney hydroxyproline: 8.59 ± 1.99 μg/mg total protein
[7]; [8]
  Alpha-SMA gene expression: 3.74 ± 0.81
[7]; [9]
  Alpha-SMA gene expression: 5.54 ± 1.54
